Laboratory results as given in the NIST ThermoML archive (doi:10.1016/j.tca.2011.11.036).

Experiment: molar heat capacity at constant pressure; xn = mol fraction of the nth substance listed
Details: 101 kPa, Liquid, Small sample (50 mg) DSC

C[N+](C)(C)CCO.[Cl-] [choline chloride] + OCC(O)CO
x1 = 0.3333
Details	molar heat capacity at constant pressure [J/K/mol]
303.15 K	237.7
308.15 K	239.1
313.15 K	240.8
318.15 K	241.9
323.15 K	243.5
328.15 K	244.9
333.15 K	246.9
338.15 K	248.4
343.15 K	250.3
348.15 K	252.1
353.15 K	254.3

C[N+](C)(C)CCO.[Cl-] [choline chloride] + OCCO
x1 = 0.3333
Details	molar heat capacity at constant pressure [J/K/mol]
303.15 K	190.8
308.15 K	192.2
313.15 K	194
318.15 K	194.9
323.15 K	196.4
328.15 K	197.6
333.15 K	199.2
338.15 K	200.6
343.15 K	202.1
348.15 K	203.9
353.15 K	205.6

NC(N)=O [urea] + C[N+](C)(C)CCO.[Cl-]
x2 = 0.3333
Details	molar heat capacity at constant pressure [J/K/mol]
303.15 K	181.4
308.15 K	182.2
313.15 K	183.2
318.15 K	183.5
323.15 K	184.5
328.15 K	185.3
333.15 K	186.4
338.15 K	187.4
343.15 K	188.5
348.15 K	189.5
353.15 K	190.8
